These results are taken from publication PMC9330635, “Halogenated Pyrrolopyrimidines with Low MIC on Staphylococcus aureus and Synergistic Effects with an Antimicrobial Peptide” (Antibiotics, 2022).

One experiment concerns E. coli (MG1655). The experiment is described as follows: MIC by broth microdilution, E. coli. It counts as cell-based, Escherichia coli. To be noted: for MIC: Escherichia coli, E. coli MG1655, broth microdilution. As for the experimental part: (§1) In this study, we have, therefore, altered our strategy and used minimal inhibitory concentration assays to identify and improve antibacterial agents. A total of 10 pyrrolopyrimidines with variation of the 4-amino group were assayed for their MIC in E. coli (MG1655) and S. aureus (ATCC29213) using the broth microdilution method. Subsequently, the compounds were also counter-screened for their inhibition of human EGFR.
(§2) The MIC of compound 1–21 towards Escherichia coli (MG1655) and Staphylococcus aureus (ATCC29213) was determined following the standards that were recommended by the Clinical and Laboratory Standards Institute (CLSI) for the broth microdilution method. Briefly, the bacterial suspensions were adjusted to 0.5 McFarland standard (~1 × 10^8 colony forming units (CFU)/mL) and diluted 1:200 in Cation-Adjusted Mueller-Hinton Broth (CAMHB, […], […]). The suspension was subsequently added to polypropylene microtiter plates (100 µL/well, ~5 × 10^4 CFU/well) that were already prepared with different concentrations of the various halogenated fused pyrimidines (11 µL/well, two-fold serial dilutions). The plates were incubated at 37 °C overnight before inspection for visible growth and determination of the MIC values.

A further experiment addresses T1, human EGFR (Homo sapiens, UniProt P00533).
T1 construct: purchased Invitrogen (ThermoFisher), assay service
The experiment is described as follows: Enzymatic EGFR (ErbB1) inhibition, Z'-LYTE. The format is biochemical. Conditions: for inhibition at 0.1 µM: 100 nM compound, ATP equal to KM; for IC50: average of 2 titration curves, ATP equal to apparent KM, read-out: IC50 towards EGFR. Here is the method: The compounds were supplied in a 10 mM DMSO solution, and enzymatic EGFR (ErbB1) inhibition potency was determined by Invitrogen (ThermoFisher) using their Z’-LYTE® assay technology. The compounds were tested for their inhibitory activity at 100 nM in duplicates. The IC50 values that were reported for 1 and 5 are based on the average of 2 titration curves (20 data points), and were calculated from activity data with a four-parameter logistic model using SigmaPlot (Windows Version 12.0 from Systat Software, Inc., Palo Alto, CA, USA). Unless stated otherwise, the ATP concentration that was used was equal to apparent KM.

The next experiment deals with S. aureus (ATCC29213). The experiment is described as follows: MIC by broth microdilution, S. aureus. It counts as cell-based, Staphylococcus aureus. To be noted: Staphylococcus aureus. As for the experimental part:
as §1, §2

The target of experiment [1] is T2, E. coli TMPK (Escherichia coli, UniProt P0A720).
T2 construct: purchased ProFoldin TMK100KE
T2 sequence (P0A720 whole entry): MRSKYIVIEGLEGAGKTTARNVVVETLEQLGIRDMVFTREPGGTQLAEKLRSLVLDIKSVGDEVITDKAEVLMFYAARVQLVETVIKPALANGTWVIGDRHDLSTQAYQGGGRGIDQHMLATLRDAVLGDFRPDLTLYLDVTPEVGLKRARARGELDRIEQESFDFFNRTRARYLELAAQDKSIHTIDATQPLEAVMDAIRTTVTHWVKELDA
The arrangement: method as in doi:10.1002/slct.202103796. To be noted: previous study; read-out: IC50 against E. coli TMPK; cited from earlier work.

In a further experiment the test system is S. aureus. Put plainly: MIC towards S. aureus in combination with the peptide betatide. The format is cell-based, Staphylococcus aureus. To be noted: betatide 8 mg/L (half its MIC). Here is the method: The concentration of betatide was 8 mg/L, which corresponds to half the MIC concentration.
as §2

The target of a further experiment is T3, human TMPK (Homo sapiens, UniProt P23919).
T3 construct: purchased ProFoldin HTMK500KE
T3 sequence (P23919 1-212): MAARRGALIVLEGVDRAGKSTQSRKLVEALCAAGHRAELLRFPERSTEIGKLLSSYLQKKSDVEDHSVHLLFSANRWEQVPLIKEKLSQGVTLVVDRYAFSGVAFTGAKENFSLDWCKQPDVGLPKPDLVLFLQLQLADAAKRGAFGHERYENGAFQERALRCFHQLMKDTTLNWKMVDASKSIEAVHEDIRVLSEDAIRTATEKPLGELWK
The experiment is described as follows: Human TMPK assay (ProFoldin kit). It counts as biochemical. To be noted: enzymatic; read-out: IC50 towards human TMPK. As for the experimental part:
(§3) The inhibition of EcTMPK was determined by Profoldin using the E. coli Thymidylate Kinase Assay Kit Plus (ProFoldin, Catalog No. TMK100KE, Hudson, MA, USA), where dTMP was phosphorylated by ATP that was catalyzed by TMPK. The assay was run in 96-well black plates at 36 °C. The formation of ADP was measured by adding a fluorescent dye and measuring the fluorescence emission at 535 nm after excitation at 485 nm. The readout was corrected for emission from the assay cocktail and DMSO. An ADP control assay was also performed to correct for possible interference with ADP detection. Single-point inhibitions were measured at 8.3 µM inhibitor concentrations. The IC50-values were determined from a similar assay, where 2-fold dilution series from […] were used. The assay towards the human enzyme was run similarly but using the Human Thymidylate Kinase Assay Kit Plus-500 (Catalog Number: HTMK500KE, ProFoldin, Hudson, MA, USA).

Experiment [2] relates to panel of 50 human kinases (EGFR most inhibited). The experiment is described as follows: Kinase panel, Z'-LYTE, 50 human kinases. It counts as biochemical. Here is the method:
As the starting point of this study was the EGFR inhibitor PKI-166 (1), there is an obvious risk of kinase off-target effects for the bromo derivative 5. Therefore, we profiled 5 towards a panel of 50 human kinases. […] Based on our previous experience, it is assumed that the EGFR inhibiting activity of 5 is too low to cause in vivo effects.
The compounds were supplied in a 10 mM DMSO solution, and enzymatic kinase inhibition potency was determined by ThermoFisher (Invitrogen, Waltham, MA, USA) using their Z’-LYTE® assay technology, at 500 nM in duplicates. The ATP concentration that was used was equal to Km, except when this service was not provided, and other concentrations had to be used.

Experiment [3] has as its target T2, E. coli TMPK. The experiment is described as follows: E. coli TMPK assay (ProFoldin kit). The format is biochemical. Conditions: enzymatic; read-out: IC50 towards E. coli TMPK. As for the experimental part:
as §3

The mark [4] stands for this setting: ATCC29213, S. aureus, single agent (Table 3), read-out: Single Comp. MIC.
The mark [5] stands for this setting: S. aureus ATCC29213, broth microdilution, read-out: S. aureus MIC.

In brackets after ≈: the same amount, converted by molar mass. Read-outs that look alike come from different tables or passages of the source.

T1 sequence (P00533 25-1210): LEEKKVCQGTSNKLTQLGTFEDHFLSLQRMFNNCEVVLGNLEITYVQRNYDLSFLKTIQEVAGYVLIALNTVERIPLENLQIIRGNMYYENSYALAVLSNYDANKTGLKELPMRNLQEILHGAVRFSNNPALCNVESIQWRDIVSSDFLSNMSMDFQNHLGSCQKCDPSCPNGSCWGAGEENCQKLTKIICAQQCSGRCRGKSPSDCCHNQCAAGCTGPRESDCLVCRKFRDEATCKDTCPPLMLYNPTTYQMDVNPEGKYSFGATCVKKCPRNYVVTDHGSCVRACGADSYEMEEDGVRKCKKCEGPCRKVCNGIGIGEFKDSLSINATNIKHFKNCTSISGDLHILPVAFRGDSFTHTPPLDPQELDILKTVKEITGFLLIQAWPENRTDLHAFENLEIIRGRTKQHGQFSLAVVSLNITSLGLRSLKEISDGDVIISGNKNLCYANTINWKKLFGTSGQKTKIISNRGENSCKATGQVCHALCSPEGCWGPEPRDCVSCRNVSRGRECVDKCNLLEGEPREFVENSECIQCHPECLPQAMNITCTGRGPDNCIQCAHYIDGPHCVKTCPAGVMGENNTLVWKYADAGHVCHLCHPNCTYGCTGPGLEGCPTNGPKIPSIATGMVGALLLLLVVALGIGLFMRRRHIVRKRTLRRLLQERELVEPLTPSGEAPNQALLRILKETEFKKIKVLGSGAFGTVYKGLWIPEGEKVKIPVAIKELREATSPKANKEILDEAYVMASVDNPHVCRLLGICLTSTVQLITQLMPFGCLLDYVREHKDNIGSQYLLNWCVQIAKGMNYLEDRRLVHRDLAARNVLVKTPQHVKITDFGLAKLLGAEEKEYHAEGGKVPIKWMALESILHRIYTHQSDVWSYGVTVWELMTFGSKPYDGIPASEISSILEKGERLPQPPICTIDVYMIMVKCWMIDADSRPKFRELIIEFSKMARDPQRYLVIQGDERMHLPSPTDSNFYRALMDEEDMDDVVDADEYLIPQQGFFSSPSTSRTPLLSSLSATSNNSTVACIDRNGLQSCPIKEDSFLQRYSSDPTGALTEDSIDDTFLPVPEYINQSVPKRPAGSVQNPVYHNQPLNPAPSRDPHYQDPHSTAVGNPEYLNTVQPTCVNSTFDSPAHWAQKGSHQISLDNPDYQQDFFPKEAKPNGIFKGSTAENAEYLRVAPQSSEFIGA

On to `C[C@@H](Nc1ncnc2[nH]c(-c3ccc(O)cc3)cc12)c1ccccc1` [Compound 1, (R)-4-(4-((1-Phenylethyl)amino)-7H-pyrrolo[2,3-d]pyrimidin-6-yl)phenol, reference compound], for which the MIC (usually the lowest concentration found to suppress growth) in the experiment on E. coli (MG1655) was above 128 µg/mL; in the experiment with S. aureus (ATCC29213) (setting [4]) it was 64 µg/mL (≈ 194 µM); in the experiment on S. aureus (ATCC29213) (setting [5]), 64 µg/mL (≈ 194 µM). In the experiment on E. coli (MG1655) (culture, MIC assay), the “Activity towards E. coli in culture (in words)” value was “did not possess any activity”. Besides, on human EGFR, the inhibition (commonly the relative decrease from the control value, in per cent) at 0.1 µM is 100%. Moreover, the concentration for half-maximal inhibition (IC50) (in general, the midpoint of a concentration-inhibition curve) is below 0.001 µM on human EGFR and 15 µM on E. coli TMPK [1]. Also, the “Combination with Betatide MIC” value in the experiment on S. aureus was 8 µg/mL.
For `C[C@@H](Nc1ncnc2[nH]c(-c3ccc(O)cc3)cc12)c1ccc(Br)cc1` [Compound 5, (R)-4-(4-((1-(4-Bromophenyl)ethyl)amino)-7H-pyrrolo[2,3-d]pyrimidin-6-yl)phenol], the MIC is above 128 µg/mL against E. coli (MG1655), 8 µg/mL (≈ 19.5 µM) in the experiment on S. aureus (ATCC29213) (setting [4]) and 8 µg/mL (≈ 19.5 µM) in the experiment on S. aureus (ATCC29213) (setting [5]). This molecule also gave an inhibition at 0.1 µM against human EGFR of 81%. The values for the IC50 on human EGFR, at human TMPK and at E. coli TMPK [3] were 0.025 µM, above 100 µM and 5 µM, respectively. For the same molecule, in the experiment with S. aureus, the “Combination with Betatide MIC” value was 1 µg/mL. In addition, the “EGFR inhibition in kinase panel” value in experiment [2] (500 nM test concentration) is reported as 91%. Further, the “Inhibition of all the other kinases of the panel” value in experiment [2] (500 nM, 50 human kinases, other than EGFR) is on record as “very low inhibition”.
